Test results: patent US20230150932A1, “COMPOSITIONS FOR STABILIZING AN ISOTHIOCYANATE” (VIO CHEMICALS AG, priority 2020, published 2023)

Assays:
[1] = left on bench for 6 months; HPLC
Source text: In order to determine the structure of the major degradation impurity found in the present study (RRT 0.76) a sample of synthetically produced Sulforaphane was left on bench for 6 months.

[2] = Stability study by HPLC, storage under Conditions C (fridge-freezer, -15° C.); format: physicochemical; settings: Conditions C -15° C.; for RRT 0.96: impurity; for RRT 0.76: thiourea degradation impurity
Procedure: (§1) The storage conditions studied in the present invention are of three types:
(§2) In all three above types of conditions, the storage media is a simple dark glass vial or round-bottomed flask. Each sample is blown with Argon before securing the cap. No further treatment regarding the atmosphere is performed. The vial is capped and secured by use of a commercially available appropriate means for sealing the cap, e.g. Parafilm. The storage media is not restrictive with respect to the present invention.
(§3) The Sulforaphane formulations were analyzed with HPLC (PDA/UV at 240 nm) using standards for identification and quantification purpose.
(§4) Take 1 mL of H3PO4 into a 1 L volumetric flask containing about 500 mL of water, dilute to the volume with water and mix well/Acetonitrile.
(§5) Transfer accurately about 20 mg of sample in to a 20 mL clean and dry volumetric flask. Dilute to the volume with diluent.
(§6) Sulphoraphane retention time is about 20 mins
(§7) Conditions A: bench (20-25° C.) Conditions B: fridge, 2-8° C. Conditions C: fridge-freezer, (−15) ° C.

[3] = Stability study by HPLC, storage under Conditions A (bench, 20-25° C.); format: physicochemical; settings: Conditions A 20-25° C.; for RRT 0.96: impurity; for RRT 0.76: thiourea degradation impurity
Procedure: as §1, §2, §3, §4, §5, §6, §7

[4] = diluted in water, heated at 80° C. for 24 hrs; HPLC

C[S+]([O-])CCCCN=C=S (stereo not drawn) [Comparative Example 3, 4-(methylsulfinyl)butylisothiocyanate]
percentage of impurity RRT 0.76 [1]: about 74.8% | Sulfone ([2]; 1 month): 3.4 | Sulforaphane ([2]; 1 month): 94.27 | RRT 0.96 ([2]; 1 month): 0.23 | RRT 0.76 ([2]; 1 month): 0.25 | Sulfone ([2]; 2 months): 3.42 | Sulforaphane ([2]; 2 months): 94.43 | RRT 0.96 ([2]; 2 months): 0.25 | RRT 0.76 ([2]; 2 months): 0.27 | Sulfone ([2]; 3 months): 3.44 | Sulforaphane ([2]; 3 months): 94.51 | RRT 0.96 ([2]; 3 months): 0.51 | RRT 0.76 ([2]; 3 months): 0.23 | Sulfone ([2]; 7 days): 3.38 | Sulforaphane ([2]; 7 days): 95.21 | RRT 0.96 ([2]; 7 days): 0.15 | Sulforaphane ([2]; 15 days): 97.23 | RRT 0.96 ([2]; 15 days): 0.03 | RRT 0.76 ([2]; 15 days): 0.62 | Sulfone ([2]; zero time): 3.40 | Sulforaphane ([2]; zero time): 94.74 | RRT 0.96 ([2]; zero time): 0.15 | RRT 0.76 ([2]; zero time): 0.01 | Sulfone ([3]; 1 month): 1.31 | Sulforaphane ([3]; 1 month): 36.35 | RRT 0.96 ([3]; 1 month): 3.88 | RRT 0.76 ([3]; 1 month): 29.16 | Sulfone ([3]; 2 months): 0.84 | Sulforaphane ([3]; 2 months): 24.51 | RRT 0.96 ([3]; 2 months): 3.95 | RRT 0.76 ([3]; 2 months): 34.37 | Sulfone ([3]; 3 months): 0.78 | Sulforaphane ([3]; 3 months): 19.98 | RRT 0.96 ([3]; 3 months): 4.11 | RRT 0.76 ([3]; 3 months): 38.38 | Sulfone ([3]; 7 days): 2.32 | Sulforaphane ([3]; 7 days): 65.48 | RRT 0.96 ([3]; 7 days): 2.62 | RRT 0.76 ([3]; 7 days): 15.87 | Sulfone ([3]; 15 days): 1.92 | Sulforaphane ([3]; 15 days): 53.28 | RRT 0.96 ([3]; 15 days): 3.20 | RRT 0.76 ([3]; 15 days): 21.61 | Sulfone ([3]; zero time): 3.40 | Sulforaphane ([3]; zero time): 94.74 | RRT 0.96 ([3]; zero time): 0.15 | RRT 0.76 ([3]; zero time): 0.01 | impurity RRT 0.76 detected (chromatographic purity) [4]: more than 93%
